Assay type in all cases: cell-based, C57BL/6 mice
Data set [1] concerns IL-6 production. As to the kind of experiment: Inhibition of IL-6 production in LPS-stimulated peritoneal macrophages (ELISA). To be noted: for IC50: peritoneal macrophages, compounds 1 h before 10 ng/mL LPS, supernatant after 6 h, average of three independent experiments in duplicate ± S.D.; for Relative activity on IL-6 production (SAR ranking): ranking in discussion; for Dose-dependent inhibition of IL-6 production: 1, 3, 10, 30 μM, 10 ng/mL LPS; for Dose-dependent inhibition of IL-6 production / Effect on production of IL-6 at single concentration: 6 h; for Effect on production of IL-6 at single concentration: 30 μM, 1 h before 10 ng/mL LPS. As to the method: (§1) Peritoneal macrophages were obtained four days after i.p. instillation of 2 mL of thioglycollate 3%, by peritoneal washing with chilled RPMI. Cells were seeded in RPMI with 10% FCS at 2 × 10^5/well in 96-well plates and cultured for 2 h at 37 °C in an atmosphere of 5% CO2. Cells were treated with compounds 1–15 (30 μM) 1 h before the stimulus with 10 ng/mL of LPS. For dose response experiments, cells were pre-treated with different concentrations (1, 3, 10, 30 μM) of compounds 1, 2, 4, 5, 6, 8, 10, 13, and 15 before the stimulation with 10 ng/mL of LPS. All the treatments and controls were performed in the presence of 0.5% of DMSO, as compounds are solubilized in this solvent. Supernatants were collected 6h after the stimulus with LPS.
(§2) Peritoneal macrophages were cultured as previously described. The concentrations of IL-6 were determined by ELISA (DuoSet kit, R&D System) according to the manufacturer’s protocol. The concentration of prostaglandin E2 (PGE2) was determined using the “Prostaglandin E2 ELISA Kit - Monoclonal” from Cayman CHEMICAL, according to the manufacturer’s protocol.
(§3) Results were analyzed using the statistical software package GraphPad Prism 5. Data are presented as means ± S.E.M. Statistical analysis was performed by Student’s t-test. A significant difference between groups was considered when p < 0.05. The half maximal inhibitory concentration (IC50) was calculated by adjusting a sigmoidal dose–response curve following GraphPad Prism5 procedure.

In data set [2] the test system is PGE2 production. The experiment in a line: Inhibition of PGE2 production in LPS-stimulated peritoneal macrophages (ELISA). The following applies: for IC50: peritoneal macrophages, compounds 1 h before 10 ng/mL LPS, supernatant after 6 h, average of three independent experiments in duplicate ± S.D.; for Relative activity on PGE2 production (SAR ranking): ranking among the monofunctionalized, discussion. As to the method: as §1, §2, §3
In general terms: ELISA stands for enzyme-linked immunosorbent assay.

In data set [3] the test system is Peritoneal macrophages. The experiment in a line: Cytotoxicity assay (MTT) on peritoneal macrophages. To be noted: 30 μM, after supernatant collection. As to the method: as §1
After the removal of supernatants, 100 µL of MTT (0.5 mg/mL) dissolved in RPMI were added to each well and cells were incubated overnight at 37 °C. The supernatants were removed and formazan crystals were dissolved in 100 µL of 0.04 M HCl in isopropanol. The color was analyzed at 570 nm using an ELISA plate reader. The percent of viable cells was calculated using the formula: % viability: [(OD sample) × 100%]/(OD control). The non-stimulated cells, cultured in medium plus 10% FCS and 0.5% DMSO, represented 100% viability.

Where [4] appears, read: Mus musculus, Peritoneal macrophage.

Usually IC50 stands for the concentration that inhibits the measured activity by half. High values mean a need for much substance, low ones inhibition by little substance. Regarding “4-((1E,4Z,6E)-5-Hydroxy-7-(4-hydroxy-3-methoxyphenyl)-3-oxohepta-1,4,6-trien-1-yl)-2-methoxyphenyl (1,2,3,4-tetrahydronaphthalen-1-yl) Succinate [Compound 15]”, in data set [1], the IC50 was 10.4 ± 0.75 µM and the “Relative activity on IL-6 production (SAR ranking)” value is “less active”. Moreover, the “Effect on PGE2 production at 3 μM” value in data set [2] (3 μM) is recorded as “significantly reduced PGE2 production”. In addition, in data set [2], half-maximal inhibition (IC50) was put at 3.07 ± 0.72 µM and the “Relative activity on PGE2 production (SAR ranking)” value was “showed activity”.

As to `COc1cc(/C=C/C(O)=C/C(=O)/C=C/c2ccc(OCc3ccccc3)c(OC)c2)ccc1O` [Compound 2, reference compound], the “Effect on IL-6 production at lowest concentration” value in data set [1] (1 μM) is recorded as “statistically significant inhibitory effect”. The “Dose-dependent inhibition of IL-6 production” value in data set [1] is recorded as “inhibited the production of IL-6 in a dose-dependent manner”. Also, the IC50 is 3.59 ± 0.27 µM in data set [1] (setting [4]) and 0.51 ± 0.08 µM in data set [2] (setting [4]). Besides, the “Effect on PGE2 production at 1 μM” value in data set [2] (1 μM) is “showed an effect”. Also, the “Dose-dependent inhibition of PGE2 production” value in data set [2] (1, 3, 10, 30 μM, 10 ng/mL LPS, 6 h) is reported as “inhibitory effect on PGE2 production at all concentrations tested”.

As for `COc1cc(/C=C/C(=O)/C=C(O)/C=C/c2ccc(OC(=O)CCC(=O)OC3C4CC5CC(C4)CC3C5)c(OC)c2)ccc1OC(=O)CCC(=O)OC1C2CC3CC(C2)CC1C3` (centres unmarked) [Compound 3, Di((1r,3r,5r,7r)-adamantan-2-yl) O,O′-(((1E,3Z,6E)-3-hydroxy-5-oxohepta-1,3,6-triene-1,7-diyl)bis(2-methoxy-4,1-phenylene)) Disuccinate], the “Effect on production of IL-6 at single concentration” value (“Effect on production” for short) in data set [1] is given as “did not show this activity”.

`COc1cc(/C=C/C(O)=C/C(=O)/C=C/c2ccc(OC(=O)CCC(=O)OC3C4CC5CC(C4)CC3C5)c(OC)c2)ccc1O` (centres unmarked) [Compound 4, (1r,3r,5r,7r)-Adamantan-2-yl (4-((1E,4Z,6E)-5-hydroxy-7-(4-hydroxy-3-methoxyphenyl)-3-oxohepta-1,4,6-trien-1-yl)-2-methoxyphenyl) Succinate]: in data set [1], the “Effect on production” value is on record as “inhibited the production of IL-6” and the “Relative activity on IL-6 production (SAR ranking)” value was “less active”. The concentration for half-maximal inhibition (IC50) in data set [1] (setting [4]) stood at 10.5 ± 0.6 µM. This compound showed an IC50 in data set [2] (setting [4]) of 4.5 ± 3.18 µM. The “Relative activity on PGE2 production (SAR ranking)” value in data set [2] was “lowest activity”.

Take `COc1cc(/C=C/C(O)=C/C(=O)/C=C/c2ccc(OC(=O)CCC(=O)OCc3ccc4c(c3)C(=O)c3ccccc3C4=O)c(OC)c2)ccc1O` [Compound 5, (9,10-Dioxo-9,10-dihydroanthracen-2-yl)methyl (4-((1E,4Z,6E)-5-hydroxy-7-(4-hydroxy-3-methoxyphenyl)-3-oxohepta-1,4,6-trien-1-yl)-2-methoxyphenyl) Succinate]: the IC50 stood at 7.11 ± 0.75 µM in data set [1] (setting [4]) and 2.6 ± 1.75 µM in data set [2] (setting [4]). Besides, the “Relative activity on IL-6 production (SAR ranking)” value in data set [1] is on record as “less active”. Also, in data set [2], the “Relative activity on PGE2 production (SAR ranking)” value is “showed activity”.

For the compound `COc1cc(/C=C/C(O)=C/C(=O)/C=C/c2ccc(OC(=O)CCC(=O)OC(c3ccccc3)c3ccccc3)c(OC)c2)ccc1O` [Compound 6, Benzhydryl (4-((1E,4Z,6E)-5-hydroxy-7-(4-hydroxy-3-methoxyphenyl)-3-oxohepta-1,4,6-trien-1-yl)-2-methoxyphenyl) Succinate], the “Effect on production” value in data set [1] is reported as “inhibited the production of IL-6”. Further, the IC50 in data set [1] (setting [4]) stood at 4.21 ± 0.73 µM; in data set [2] (setting [4]), 4.43 ± 0.85 µM. Moreover, the “Relative activity on PGE2 production (SAR ranking)” value in data set [2] was “showed activity”.

As to `COc1cc(/C=C/C(=O)/C=C(O)/C=C/c2ccc(OC(=O)CCC(=O)OC(c3ccccc3)C3CCCCC3)c(OC)c2)ccc1OC(=O)CCC(=O)OC(c1ccccc1)C1CCCCC1` (centres unmarked) [Compound 7, Bis(cyclohexyl(phenyl)methyl) O,O′-(((1E,3Z,6E)-3-hydroxy-5-oxohepta-1,3,6-triene-1,7-diyl)bis(2-methoxy-4,1-phenylene)) Disuccinate], the “Effect on production” value in data set [1] is listed as “did not show this activity”.

In the case of `COc1cc(/C=C/C(O)=C/C(=O)/C=C/c2ccc(OC(=O)CCC(=O)OC(c3ccccc3)C3CCCCC3)c(OC)c2)ccc1O` (centres unmarked) [Compound 8, Cyclohexyl(phenyl)methyl (4-((1E,4Z,6E)-5-hydroxy-7-(4-hydroxy-3-methoxyphenyl)-3-oxohepta-1,4,6-trien-1-yl)-2-methoxyphenyl) Succinate], the “Effect on production” value in data set [1] was “not statistically significant”. In addition, the values for the IC50 in data set [1] (setting [4]) and in data set [2] (setting [4]) were 1.94 ± 0.66 µM and 5.9 ± 2.38 µM, respectively. Besides, in data set [2], the “Relative activity on PGE2 production (SAR ranking)” value is reported as “lowest activity”.

For the compound `COc1cc(/C=C/C(=O)/C=C(O)/C=C/c2ccc(OC(=O)CCC(=O)OC3c4ccccc4-c4ccccc43)c(OC)c2)ccc1OC(=O)CCC(=O)OC1c2ccccc2-c2ccccc21` [Compound 9, Di(9H-fluoren-9-yl) O,O′-(((1E,3Z,6E)-3-hydroxy-5-oxohepta-1,3,6-triene-1,7-diyl)bis(2-methoxy-4,1-phenylene)) Disuccinate], the “Effect on production” value in data set [1] is given as “did not show this activity”.

As to `COc1cc(/C=C/C(O)=C/C(=O)/C=C/c2ccc(OC(=O)CCC(=O)OC3c4ccccc4-c4ccccc43)c(OC)c2)ccc1O` [Compound 10, 9H-Fluoren-9-yl (4-((1E,4Z,6E)-5-hydroxy-7-(4-hydroxy-3-methoxyphenyl)-3-oxohepta-1,4,6-trien-1-yl)-2-methoxyphenyl) Succinate], the “Effect on production” value in data set [1] is reported as “inhibited the production of IL-6”. Besides, the half-inhibitory concentration (IC50) in data set [1] (setting [4]) was found to be 3.6 ± 0.21 µM; in data set [2] (setting [4]) it was 5.93 ± 2.29 µM. Besides, the “Relative activity on PGE2 production (SAR ranking)” value in data set [2] is “lowest activity”.

For `COc1cc(/C=C/C(O)=C/C(=O)/C=C/c2ccc(OC(=O)CCC(=O)O[C@@H]3C[C@H](C)CC[C@H]3C(C)C)c(OC)c2)ccc1OC(=O)CCC(=O)O[C@H]1C[C@@H](C)CC[C@@H]1C(C)C` [Compound 12, O,O′-(((1E,3Z,6E)-3-Hydroxy-5-oxohepta-1,3,6-triene-1,7-diyl)bis(2-methoxy-4,1-phenylene)) bis((1R,2S,5R)-2-isopropyl-5-methylcyclohexyl) Disuccinate], the “Effect on production” value in data set [1] is “did not show this activity”.

For the compound `COc1cc(/C=C/C(O)=C/C(=O)/C=C/c2ccc(OC(=O)CCC(=O)O[C@@H]3C[C@H](C)CC[C@H]3C(C)C)c(OC)c2)ccc1O` [Compound 13, 4-((1E,4Z,6E)-5-Hydroxy-7-(4-hydroxy-3-methoxyphenyl)-3-oxohepta-1,4,6-trien-1-yl)-2-methoxyphenyl((1R,2S,5R)-2-isopropyl-5-methylcyclohexyl) Succinate], the IC50 in data set [1] (setting [4]) is 10.6 ± 0.33 µM; in data set [2] (setting [4]), 5.42 ± 2.04 µM. Also, the “Relative activity on IL-6 production (SAR ranking)” value in data set [1] is “less active”. The “Relative activity on PGE2 production (SAR ranking)” value in data set [2] is “lowest activity”.

Consider “Curcumin [Compound 1, reference compound]”, for which the “Dose-dependent inhibition of IL-6 production” value in data set [1] is on record as “inhibited the production of IL-6 in a dose-dependent manner”. In addition, the half-inhibitory concentration (IC50) in data set [1] is 6.85 ± 2.5 µM; in data set [2] it was 1.34 ± 0.067 µM. Also, in data set [3], the “Cytotoxicity / cell viability (MTT)” value is given as “affected cell viability”.

The values are drawn from publication PMC9966181, “Polyphenols with Anti-Inflammatory Properties: Synthesis and Biological Activity of Novel Curcumin Derivatives” (International Journal of Molecular Sciences, 2023).
